Data: patent publication US12583851B2, “Heteroaryl-substituted pyrazine derivatives as pesticides” (Elanco Animal Health GmbH, priority 2019, dated 2026)

Experiments:
Format in all cases: in vivo
[1] = tested on: Rhipicephalus (Boophilus) microplus larvae (strain Parkhurst, resistant against synthetic pyrethroids); test: Rhipicephalus (Boophilus) microplus in-vitro contact test, larval cattle tick; details: after 48 hours, read-out: efficacy (larvae dead or moribund); for pest or weed control at 1 µg/cm2, 100 g/ha: 1 μg/cm^2 (=100 g/ha); for pest or weed control at 5 µg/cm2, 500 g/ha: 5 μg/cm^2 (=500 g/ha)
Procedure, shortened: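 Acetone solutions were coated onto glass tube walls (900 ppm gives 5 μg/cm²); after drying, 20–50 pyrethroid-resistant Parkhurst larvae added and held at 27 °C, 85% RH. At 48 h, efficacy as % larvae dead or moribund, judged by loss of negative geotaxis.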

[2] = tested on: green peach aphid (Myzus persicae); test: Myzus persicae spray test; details: foliar, 120 h, Chinese cabbage leaf disks, after 5 days
Description: Myzus persicae—Spray Test
Solvent: 78.0 parts by weight acetone • 1.5 parts by weight dimethylformamide
(§1) Emulsifier: alkylarylpolyglycol ether
(§2) To produce a suitable preparation of active compound, 1 part by weight of active compound is mixed with the stated amount of solvents and is diluted with water, containing an emulsifier concentration of 1000 ppm, to the desired concentration. Further test concentrations are prepared by dilution with emulsifier containing water.
Chinese cabbage (Brassica pekinensis) leaf disks infected with all instars of the green peach aphid (Myzus persicae), are sprayed with a preparation of the active ingredient of the desired concentration.
After 5 days mortality in % is determined. 100% means all aphids have been killed and 0% means none of the aphids have been killed.

[3] = tested on: fall armyworm larvae (Spodoptera frugiperda); test: Spodoptera frugiperda spray test; details: 168 h, maize leaf sections, after 7 days
Procedure, shortened: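 Compound dissolved in acetone/dimethylformamide, diluted in water containing 1000 ppm alkylarylpolyglycol ether emulsifier and sprayed onto maize leaf sections. Dried sections were infested with larvae; % mortality scored after 7 days (100% = all caterpillars killed, 0% = none).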

[4] = tested on: adult cat fleas (Ctenocephalides felis); test: Ctenocephalides felis in-vitro contact test, adult cat flea; details: after 48 hours, read-out: efficacy (fleas dead or moribund); for pest or weed control at 1 µg/cm2, 100 g/ha: 1 μg/cm^2 (=100 g/ha); for pest or weed control at 5 µg/cm2, 500 g/ha: 5 μg/cm^2 (=500 g/ha)
Procedure, shortened: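 Acetone solution coated onto glass tube walls; 900 ppm gives 5 μg/cm². Once dry, 5–10 adult fleas per tube held at room temperature for 48 h. Efficacy (%) is the share of fleas dead or moribund, i.e. unable to climb away on a 45–50° C heating plate.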

[5] = tested on: larvae of the southern green stink bug (Nezara viridula); test: Nezara viridula spray test; details: 96 h, 500 g/ha, barley plants, after 4 days
Description: Nezara viridula—Spray Test
(§3) Solvent: 78.0 parts by weight of acetone • • 1.5 parts by weight of dimethylformamide
as §1
as §2, with “solvent,” for “solvents”, “and the concentrate” for “and”
Barley plants (Hordeum vulgare) infested with larvae of the southern green stink bug (Nezara viridula) are sprayed with a test solution containing the desired concentration of the active ingredient.
After 4 days mortality in % is determined. 100% means all the stink bugs have been killed; 0% means none of the stink bugs have been killed.

[6] = tested on: adult brown dog ticks (Rhipicephalus sanguineus); test: Rhipicephalus sanguineus in-vitro contact test, adult brown dog ticks; details: 48 h, after 48 hours, read-out: efficacy (ticks dead or moribund); for pest or weed control at 5 µg/cm2, 500 g/ha: 5 μg/cm^2 (=500 g/ha); for pest or weed control at 1 µg/cm2, 100 g/ha: 1 μg/cm^2 (=100 g/ha)
Procedure, shortened: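 Acetone solution coated on glass tube inner walls (900 ppm, giving 5 μg/cm^2); after drying, 5–10 adult ticks added and kept 48 h at room temperature. Efficacy scored as percent dead or moribund, i.e., ticks unable to climb away on a 45–50 °C heating plate within 5 min.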

[7] = tested on: larvae of the banded cucumber beetle (Diabrotica balteata); test: Diabrotica balteata spray test; details: 168 h, after 7 days, read-out: efficacy (seedling growth); for pest or weed control at 6.4 µg/disc, 20 g/ha: 20 g/ha (=6.4 μg/well); for pest or weed control at 32 µg/disc, 100 g/ha: 100 g/ha (=32 μg/well)
Procedure, shortened: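 Germinated wheat seedlings (5 per well, on agar) sprayed with compound in acetone/DMF with emulsifier-containing water, then infested with 10–20 Diabrotica balteata larvae. Efficacy (%) scored after 7 days from seedling growth: 100% = growth as untreated uninfested control, 0% = no seedlings grown.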

[8] = tested on: brown planthopper (Nilaparvata lugens); test: Nilaparvata lugens spray test; details: 96 h, 500 g/ha, rice plants, after 4 days
Description: Nilaparvata lugens—Spray Test
as §3, §1, §2
Rice plants (Oryza sativa) are sprayed with a preparation of the active ingredient of the desired concentration and the plants are infested with the brown planthopper (Nilaparvata lugens).
After 4 days mortality in % is determined. 100% means all planthoppers have been killed and 0% means none of the planthoppers have been killed.

SMILES | pest or weed control at 1 µg/cm2, 100 g/ha [1] | pest or weed control at 5 µg/cm2, 500 g/ha [1] | mortality at 100 g/ha [2] | mortality at 100 g/ha [3] | pest or weed control at 1 µg/cm2, 100 g/ha [4] | mortality at 500 g/ha [5] | pest or weed control at 5 µg/cm2, 500 g/ha [6] | pest or weed control at 5 µg/cm2, 500 g/ha [4] | pest or weed control at 6.4 µg/disc, 20 g/ha [7] | pest or weed control at 32 µg/disc, 100 g/ha [7] | mortality at 500 g/ha [8] | pest or weed control at 1 µg/cm2, 100 g/ha [6]
CC(NC(=O)c1cc(C(F)(F)F)cc(C(F)(F)F)c1)c1nccnc1-c1ccc(C(=O)N(C)C)cn1 (racemic) [Example I-38, (rac)-6-(3-{1-[3,5-Bis(trifluoromethyl)benzamido]ethyl}pyrazin-2-yl)-N,N-dimethylpyridine-3-carboxamide] | 100% | 100% | 90% | 100% | 90% | – | – | – | – | – | – | –
CCN(C)C(=O)c1cnc(-c2nccnc2C(C)N(CC2CC2)C(=O)c2cc(C(F)(F)F)cc(C(F)(F)F)c2)s1 (racemic) [Example I-83, (rac)-2-{3-[1-{[3,5-Bis(trifluoromethyl)benzoyl](cyclopropylmethyl)amino}ethyl]pyrazin-2-yl}-N-ethyl-N-methyl-1,3-thiazole-5-carboxamide] | 100% | 100% | – | 100% | 100% | 100% | 80% | 100% | 100% | 100% | 100% | –
CC(NC(=O)c1cc(C(F)(F)F)cc(C(F)(F)F)c1)c1nccnc1-n1cc(C(=O)N(C)C)cn1 (racemic) [Example I-88, (rac)-1-(3-{1-[3,5-Bis(trifluoromethyl)benzamido]ethyl}pyrazin-2-yl)-N,N-dimethyl-1H-pyrazole-4-carboxamide] | 100% | 100% | 90% | 100% | – | – | – | – | 100% | 100% | – | –
CC(NC(=O)c1cc(Cl)cc(C(F)(F)F)c1)c1nccnc1-n1cc(C(=O)N(C)CC2CC2)cn1 (racemic) [Example I-132, (rac)-1-(3-{1-[3-Chloro-5-(trifluoromethyl)benzamido]ethyl}pyrazin-2-yl)-N-(cyclopropylmethyl)-N-methyl-1H-pyrazole-4-carboxamide] | 100% | 100% | – | 100% | 100% | 100% | 100% | 100% | 100% | 100% | 100% | 100%
CC(NC(=O)c1cc(Cl)cc(OC(F)(F)F)c1)c1nccnc1-n1cc(C(=O)N(C)CC2CC2)cn1 (racemic) [Example I-133, (rac)-1-(3-{1-[3-Chloro-5-(trifluoromethoxy)benzamido]ethyl}pyrazin-2-yl)-N-(cyclopropylmethyl)-N-methyl-1H-pyrazole-4-carboxamide] | 100% | 100% | – | 100% | 100% | 100% | 100% | 100% | 100% | 100% | – | 100%
CC(NC(=O)c1cc(Br)cc(OC(F)(F)F)c1)c1nccnc1-n1cc(C(=O)N(C)CC2CC2)cn1 (racemic) [Example I-134, (rac)-1-(3-{1-[3-Bromo-5-(trifluoromethoxy)benzamido]ethyl}pyrazin-2-yl)-N-(cyclopropylmethyl)-N-methyl-1H-pyrazole-4-carboxamide] | 100% | 100% | – | 100% | 80% | 100% | 100% | 100% | 100% | 100% | 100% | 100%
CC(NC(=O)c1cc(OC(F)(F)F)cc(S(C)(=O)=O)c1)c1nccnc1-c1ncc(C(=O)N(C)CC2CC2)s1 (racemic) [Example I-140, (rac)-N-(Cyclopropylmethyl)-2-(3-{1-[3-(methanesulfonyl)-5-(trifluoromethoxy)benzamido]ethyl}pyrazin-2-yl)-N-methyl-1,3-thiazole-5-carboxamide] | – | – | – | 100% | – | – | – | 90% | – | – | 100% | –
CC(NC(=O)c1cc(C(F)F)cc(C(F)F)c1)c1nccnc1-c1ncc(C(=O)N(C)CC2CC2)s1 (racemic) [Example I-141, (rac)-2-(3-{1-[3,5-Bis(difluoromethyl)benzamido]ethyl}pyrazin-2-yl)-N-(cyclopropylmethyl)-N-methyl-1,3-thiazole-5-carboxamide] | 100% | 90% | – | 100% | – | 100% | – | 100% | – | 100% | 100% | –
CCN(CC)C(=O)c1ccc(-c2nccnc2C(C)NC(=O)c2cc(C(F)(F)F)cc(C(F)(F)F)c2)nc1 (single isomer, unassigned) [Example I-160, 6-(3-{1-[3,5-Bis(trifluoromethyl)benzamido]ethyl}pyrazin-2-yl)-N,N-diethylpyridine-3-carboxamide] | – | – | 90% | 100% | – | – | – | – | – | – | – | –
CC(NC(=O)c1cc(C(F)(F)F)cc(C(F)(F)F)c1)c1nccnc1-c1ccc(C(=O)N(C)CC2CC2)cn1 (single isomer, unassigned) [Example I-164, 6-(3-{1-[3,5-Bis(trifluoromethyl)benzamido]ethyl}pyrazin-2-yl)-N-(cyclopropylmethyl)-N-methylpyridine-3-carboxamide] | – | – | 90% | 100% | – | – | – | – | – | – | – | –
CC(NC(=O)c1cc(C(F)(F)F)cc(C(F)(F)F)c1)c1nccnc1-c1ccc(C(=O)N2C[C@@H](C)O[C@@H](C)C2)cn1 (single isomer, unassigned) [Example I-166, N-[1-(3-{5-[(cis)-2,6-Dimethylmorpholine-4-carbonyl]pyridin-2-yl}pyrazin-2-yl)ethyl]-3,5-bis(trifluoromethyl)benzamide] | – | – | 90% | 100% | – | – | – | – | – | – | – | –
COc1ccc(-c2nccnc2C(C)NC(=O)c2cc(Cl)cc(OC(F)(F)F)c2)nc1 (stereo not drawn) [Example I-28] | 90% | 80% | 90% | – | – | – | – | – | 100% | 80% | – | –
CCN(C)C(=O)c1cnc(-c2nccnc2[C@@H](C)NC(=O)c2cc(C(F)(F)F)cc(C(F)(F)F)c2)s1 [Example I-84, 2-(3-{(1R)-1-[3,5-bis(trifluoromethyl)benzamido]ethyl}pyrazin-2-yl)-N-ethyl-N-methyl-1,3-thiazole-5-carboxamide] | – | – | 90% | – | – | – | – | – | – | – | – | –
